Read-outs that look alike come from different tables or passages of the source.
Key:
Assay type in all cases: cell-based
[1] = tested on: Proteus mirabilis (PMI) isolates; assay: microbe, parasite or virus in culture; settings: Proteus mirabilis
How it was run: (§1)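 First, log-phase suspensions are brought to 5.10^5 CFU/mL final in ca-MHB; plates then incubate 16-20 h at 35° C in air. Growth is judged visually, giving the compound MIC alone and the antibacterial MIC at each compound concentration.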

[2] = tested on: Providencia stuartii (PST) isolates; assay: MIC of compounds alone and combined with antibacterials, broth microdilution (CLSI); settings: Providencia stuartii, read-out: MIC
How it was run: (§2)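 CLSI broth microdilution: log-phase isolates at 5.10^5 CFU/mL in cation-adjusted Mueller-Hinton broth were exposed to compound alone or in combination with an antibacterial, 16-20 h at 35° C in ambient air. MIC is the lowest concentration preventing visible growth, including the antibacterial MIC at each compound concentration.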

[3] = tested on: Salmonella typhimurium (STY) isolates; assay: as above; settings: Salmonella enterica, TYPHIMURIUM
How it was run: as §2

[4] = tested on: Morganella morganii (MMO) isolates; assay: as above; settings: Morganella morganii
How it was run: as §1

[5] = tested on: Klebsiella oxytoca (KOX) isolates; assay: as above; settings: Klebsiella oxytoca
How it was run: as §1

[6] = tested on: Enterobacter cloacae (ECL) isolates; assay: as above; settings: Enterobacter cloacae
How it was run: as §1

C=CC1=C(C(=O)O)N2C(=O)[C@@H](NC(=O)/C(=N\O)c3csc(N)n3)[C@H]2SC1 [CDR, Cefdinir]
MIC ([1]; strain PMI UFR82, genotype CMY-2, read-out: MIC): 16 µg/mL | MIC ([1]; strain PMI UFR120, genotype TEM-1, SHV-11, CTX-M-14, read-out: MIC): 64 µg/mL | MIC ([1]; strain PMI UFR121, genotype TEM-1, TEM-52): > 256 µg/mL | MIC ([1]; strain PMI UFR122, genotype TEM-1, CTX-M-15, read-out: MIC): 16 µg/mL | MIC ([1]; strain PMI UFR123, genotype CTX-M-1): > 256 µg/mL | MIC ([1]; strain PMI UFR124, genotype CTX-M-2): > 256 µg/mL | MIC ([1]; strain PMI UFR125, genotype CTX-M-71, read-out: MIC): 256 µg/mL | MIC ([1]; strain PMI UFR126, genotype TEM-2, PER-1): > 256 µg/mL | MIC ([1]; strain PMI UFR127, genotype VEB-1): > 256 µg/mL | MIC ([1]; strain PMI UFR129, genotype TEM-1, VEB-6): > 256 µg/mL | MIC ([1]; strain PMI UFR130, genotype CMY-2, read-out: MIC): 16 µg/mL | MIC ([1]; strain PMI UFR237, genotype VEB-6): > 256 µg/mL | MIC ([2]; strain PST UFR94, genotype CTX-M-14): 64 µg/mL | MIC ([2]; strain PST UFR95, genotype TEM-24): 32 µg/mL | MIC ([2]; strain PST UFR235, genotype VEB-1): 256 µg/mL | MIC [3]: 0.5 µg/mL | MIC [4]: > 256 µg/mL | MIC ([4]; strain MMO 200321, genotype TEM-1, CTX-M-15, OXA-1, read-out: MIC): 256 µg/mL | MIC ([4]; strain MMO UFR144, genotype TEM-1, CTX-M-15, read-out: MIC): 128 µg/mL | MIC ([4]; strain MMO UFR240, genotype CTX-M-9, read-out: MIC): 64 µg/mL | MIC ([4]; strain MMO UFR241, genotype TEM-1, CTX-M-15, read-out: MIC): 128 µg/mL | MIC ([4]; strain MMO UFR243, genotype DHA-1, read-out: MIC): 64 µg/mL | MIC ([4]; strain MMO UFR244, genotype DHA-1, read-out: MIC): 32 µg/mL | MIC ([4]; strain MMO UFR245, genotype DHA-1, read-out: MIC): 64 µg/mL | MIC ([4]; strain MMO UFR246, genotype DHA-1, read-out: MIC): 64 µg/mL | MIC ([4]; strain MMO UFR247, genotype DHA-1, read-out: MIC): 128 µg/mL | MIC [5]: > 256 µg/mL | MIC ([6]; strain ECL 2185D, genotype OXA-163): > 256 µg/mL | MIC ([6]; strain ECL 190310, genotype AmpC): > 256 µg/mL | MIC ([6]; strain ECL 190408, genotype TEM-1, CTX-M-15, OXA-1): > 256 µg/mL | MIC ([6]; strain ECL 200138, genotype AmpC): > 256 µg/mL | MIC ([6]; strain ECL 200322, genotype TEM-1, CTX-M-15, OXA-1): > 256 µg/mL | MIC ([6]; strain ECL 260033, genotype AmpC): > 256 µg/mL | MIC ([6]; strain ECL 260253, genotype TEM-1, KPC-3): > 256 µg/mL | MIC ([6]; strain ECL 260323, genotype AmpC, read-out: MIC): 256 µg/mL | MIC ([6]; strain ECL 260508, genotype TEM-1, CTX-M-15): > 256 µg/mL | MIC ([6]; strain ECL NEM146383, genotype AmpC): > 256 µg/mL | MIC ([6]; strain ECL P99, genotype AmpC): > 256 µg/mL | MIC ([6]; strain ECL UFR12, genotype CTX-M-9, OXA-48): > 256 µg/mL | MIC ([6]; strain ECL UFR13, genotype TEM-1, SHV-12, CTX-M-9, OXA-48): > 256 µg/mL | MIC ([6]; strain ECL UFR14, genotype TEM-1, SHV-12, CTX-M-15, DHA-1, OXA-1, OXA-48): > 256 µg/mL | MIC ([6]; strain ECL UFR60, genotype TEM-1, CTX-M-15, KPC-2): > 256 µg/mL | MIC ([6]; strain ECL UFR70, genotype TEM-1, CTX-M-15, CMY-2, OXA-1, Porin loss): > 256 µg/mL | MIC ([6]; strain ECL UFR84, genotype TEM-1, AmpC, OXA-1): > 256 µg/mL | MIC ([6]; strain ECL UFR85, genotype TEM-1, CTX-M-15, AmpC): > 256 µg/mL | MIC ([6]; strain ECL UFR194, genotype OXA-48): > 256 µg/mL | MIC ([6]; strain ECL UFR195, genotype TEM-1, CTX-M-15, OXA-1, OXA-48): > 256 µg/mL | MIC ([6]; strain ECL UFR196, genotype TEM-1, CTX-M-15, OXA-1, OXA-48): > 256 µg/mL | MIC ([6]; strain ECL UFR197, genotype TEM-1, CTX-M-15, OXA-1, OXA-48): > 256 µg/mL | MIC ([6]; strain ECL UFR198, genotype TEM-1, SHV-12, CTX-M-15, DHA-1, OXA-1, OXA-48): > 256 µg/mL | MIC ([6]; strain ECL UFR200, genotype TEM-1, SHV-12, KPC-2): > 256 µg/mL

Reference: patent US20200017495A1, “NOVEL HETEROCYCLIC COMPOUNDS AND THEIR USE IN PREVENTING OR TREATING BACTERIAL INFECTIONS” (priority 2017, published 2020)
